# In patent US4684664A, “Derivatives of β-(4-isocyano-1,2,3,4-diepoxycyclopentyl) acrylic acid” (Kureha Kagaku Kogyo Kabushiki Kaisha, priority 1984, dated 1987):
# Columns and labels:
# Format in all cases: cell-based
# [1] = tested on: Salmonella typhimurium IID 971; experiment: Antibacterial activity, agar-dilution MIC, organism No. 8; conditions: Salmonella enterica; Organism No. 8, bouillon-agar; read-out: Minimum Inhibitory Concentration
# Method in brief: (§1)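 Agar dilution, bouillon-agar plates; MIC reported in μg/ml of medium.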
# [2] = tested on: Serratia marcescens IAM 1184; experiment: Antibacterial activity, agar-dilution MIC, organism No. 13; conditions: Serratia marcescens, IAM1184; Organism No. 13, bouillon-agar; read-out: Minimum Inhibitory Concentration
# Method in brief: as §1
# [3] = tested on: Streptococcus pyogenes IFO 3340; experiment: Antibacterial activity, agar-dilution MIC, organism No. 26; conditions: Streptococcus pyogenes, IFO3340; Organism No. 26, bouillon-agar; read-out: Minimum Inhibitory Concentration
# Method in brief: as §1
# [4] = tested on: Micrococcus luteus ATCC 9341; experiment: Antibacterial activity, agar-dilution MIC, organism No. 25; conditions: Micrococcus luteus, ATCC9341; Organism No. 25, bouillon-agar; read-out: Minimum Inhibitory Concentration
# Method in brief: as §1
# [5] = tested on: Proteus rettgeri IFO 3850; experiment: Antibacterial activity, agar-dilution MIC, organism No. 22; conditions: Providencia rettgeri, IFO3850; Organism No. 22, bouillon-agar; read-out: Minimum Inhibitory Concentration
# Method in brief: as §1
# [6] = tested on: Salmonella paratyphi-A 1015; experiment: Antibacterial activity, agar-dilution MIC, organism No. 10; conditions: Salmonella enterica, PARATYPHI, read-out: Minimum Inhibitory Concentration
# Method in brief: as §1
# [7] = tested on: Proteus vulgaris OX-19; experiment: Antibacterial activity, agar-dilution MIC, organism No. 20; conditions: Proteus vulgaris, OX19; Organism No. 20, bouillon-agar; read-out: Minimum Inhibitory Concentration
# Method in brief: as §1
# [8] = tested on: Enterobacter aerogenes ATCC 13048; experiment: Antibacterial activity, agar-dilution MIC, organism No. 23; conditions: Klebsiella aerogenes, ATCC13048; Organism No. 23, bouillon-agar; read-out: Minimum Inhibitory Concentration
# Method in brief: as §1
# [9] = tested on: Proteus mirabilis IFO 3849; experiment: Antibacterial activity, agar-dilution MIC, organism No. 19; conditions: Proteus mirabilis, IFO3849; Organism No. 19, bouillon-agar; read-out: Minimum Inhibitory Concentration
# Method in brief: as §1
# [10] = tested on: Escherichia coli NIHJ-JC-2; experiment: Antibacterial activity, agar-dilution MIC, organism No. 5; conditions: Escherichia coli, NIHJJC2; Organism No. 5, bouillon-agar; read-out: Minimum Inhibitory Concentration
# Method in brief: as §1
# [11] = tested on: Bacillus subtilis ATCC 6633; experiment: Antibacterial activity, agar-dilution MIC, organism No. 14; conditions: Bacillus subtilis, ATCC6633; Organism No. 14, bouillon-agar; read-out: Minimum Inhibitory Concentration
# Method in brief: as §1
# [12] = tested on: Proteus morganii IFO 3848; experiment: Antibacterial activity, agar-dilution MIC, organism No. 18; conditions: Morganella morganii, IFO3848; Organism No. 18, bouillon-agar; read-out: Minimum Inhibitory Concentration
# Method in brief: as §1
# [13] = tested on: Pseudomonas aeruginosa PAO 1; experiment: Antibacterial activity, agar-dilution MIC, organism No. 17; conditions: Pseudomonas aeruginosa, PAO1; Organism No. 17, bouillon-agar; read-out: Minimum Inhibitory Concentration
# Method in brief: as §1
# [14] = tested on: Streptococcus pyogenes Cook; experiment: Antibacterial activity, agar-dilution MIC, organism No. 4; conditions: Streptococcus pyogenes; Organism No. 4, bouillon-agar; read-out: Minimum Inhibitory Concentration
# Method in brief: as §1
# [15] = tested on: Pseudomonas aeruginosa NCTC 10490; experiment: Antibacterial activity, agar-dilution MIC, organism No. 16; conditions: Pseudomonas aeruginosa, NCTC10490; Organism No. 16, bouillon-agar; read-out: Minimum Inhibitory Concentration
# Method in brief: as §1
# [16] = tested on: Enterobacter cloacae 963; experiment: Antibacterial activity, agar-dilution MIC, organism No. 24; conditions: Enterobacter cloacae, 963; Organism No. 24, bouillon-agar; read-out: Minimum Inhibitory Concentration
# Method in brief: as §1
# [17] = tested on: Proteus vulgaris HX-19; experiment: Antibacterial activity, agar-dilution MIC, organism No. 21; conditions: Proteus vulgaris, HX19; Organism No. 21, bouillon-agar; read-out: Minimum Inhibitory Concentration
# Method in brief: as §1
# [18] = tested on: Streptococcus faecium IFO 3826; experiment: Antibacterial activity, agar-dilution MIC, organism No. 27; conditions: Enterococcus faecium, IFO3826; Organism No. 27, bouillon-agar; read-out: Minimum Inhibitory Concentration
# Method in brief: as §1
# [19] = tested on: Salmonella shottmuelleri 8006; experiment: Antibacterial activity, agar-dilution MIC, organism No. 11; conditions: Salmonella, 8006; Organism No. 11, bouillon-agar; read-out: Minimum Inhibitory Concentration
# Method in brief: as §1
# [20] = tested on: Candida albicans IAM 4905; experiment: Antifungal activity, agar-dilution MIC, organism No. 29; conditions: Candida albicans, IAM4905; Organism No. 29, bouillon-agar; read-out: Minimum Inhibitory Concentration
# Method in brief: as §1
# [21] = tested on: Staphylococcus aureus FDA 209PJc-1; experiment: Antibacterial activity, agar-dilution MIC, organism No. 1; conditions: Staphylococcus aureus, FDA209PJC1; Organism No. 1, bouillon-agar; read-out: Minimum Inhibitory Concentration
# Method in brief: as §1
# [22] = tested on: Salmonella enteritidis G 14; experiment: Antibacterial activity, agar-dilution MIC, organism No. 12; conditions: Salmonella enterica, ENTERITIDIS; Organism No. 12, bouillon-agar; read-out: Minimum Inhibitory Concentration
# Method in brief: as §1
# [23] = tested on: Pseudomonas aeruginosa IFO 3445; experiment: Antibacterial activity, agar-dilution MIC, organism No. 15; conditions: Pseudomonas aeruginosa, IFO3445; Organism No. 15, bouillon-agar; read-out: Minimum Inhibitory Concentration
# Method in brief: as §1
# [24] = tested on: Mycoplasma pneumoniae IID817; experiment: Antimycoplasmal activity, MIC by phenol red colour change, organism No. 28; conditions: Mycoplasma, IID817; Organism No. 28, PPLO broth + 1% glucose, 37° C.; read-out: Minimum Inhibitory Concentration (MIC)
# Method: Mycoplasma pneumoniae IID817 was used as the test microorganism in a culture medium prepared by adding 1% of glucose to "PPLO broth (manufactured by Difco Co.) liquid culture medium" at 37° C. with phenol red as an indicator, thereby culturing the test microorganism.
# [25] = tested on: Salmonella typhi 901; experiment: Antibacterial activity, agar-dilution MIC, organism No. 9; conditions: Salmonella enterica, TYPHI, read-out: Minimum Inhibitory Concentration
# Method in brief: as §1
# [26] = tested on: Escherichia coli K12 C600 IAM 1264; experiment: Antibacterial activity, agar-dilution MIC, organism No. 6; conditions: Escherichia coli, IAM1264; Organism No. 6, bouillon-agar; read-out: Minimum Inhibitory Concentration
# Method in brief: as §1
# [27] = tested on: Aspergillus niger IFO 6342; experiment: Antifungal activity, agar-dilution MIC, organism No. 30; conditions: Aspergillus niger, IFO6342; Organism No. 30, bouillon-agar; read-out: Minimum Inhibitory Concentration
# Method in brief: as §1
# [28] = tested on: Staphylococcus aureus MS 353; experiment: Antibacterial activity, agar-dilution MIC, organism No. 3; conditions: Staphylococcus aureus, MS353; Organism No. 3, bouillon-agar; read-out: Minimum Inhibitory Concentration
# Method in brief: as §1
# [29] = tested on: Staphylococcus aureus Terajima; experiment: Antibacterial activity, agar-dilution MIC, organism No. 2; conditions: Staphylococcus aureus; Organism No. 2, bouillon-agar; read-out: Minimum Inhibitory Concentration
# Method in brief: as §1
# [30] = tested on: Klebsiella pneumoniae PCI-602; experiment: Antibacterial activity, agar-dilution MIC, organism No. 7; conditions: Klebsiella pneumoniae, PCI602; Organism No. 7, bouillon-agar; read-out: Minimum Inhibitory Concentration
# Method in brief: as §1
SMILES,MIC [1] [µg/mL],MIC [2] [µg/mL],MIC [3] [µg/mL],MIC [4] [µg/mL],MIC [5] [µg/mL],MIC [6] [µg/mL],MIC [7] [µg/mL],MIC [8] [µg/mL],MIC [9] [µg/mL],MIC [10] [µg/mL],MIC [11] [µg/mL],MIC [12] [µg/mL],MIC [13] [µg/mL],MIC [14] [µg/mL],MIC [15] [µg/mL],MIC [16] [µg/mL],MIC [17] [µg/mL],MIC [18] [µg/mL],MIC [19] [µg/mL],MIC [20] [µg/mL],other results
[C-]#[N+]C12CC3(/C=C/C(=O)ON4C(=O)CCC4=O)OC3C1O2 (stereo not drawn) [Compound No. 9],50,200,100,25,> 200,50,200,> 200,200,50,200,50,> 200,100,> 200,> 200,25,50,50,> 100,MIC [21]: 50 µg/mL; MIC [22]: 50 µg/mL; MIC [23]: > 200 µg/mL; MIC [24]: 6.25 µg/mL; MIC [25]: 50 µg/mL; MIC [26]: 50 µg/mL; MIC [27]: > 100 µg/mL; MIC [28]: 50 µg/mL; MIC [29]: 50 µg/mL; MIC [30]: 200 µg/mL
[C-]#[N+]C12CC3(/C=C/C(=O)Nc4ccc(S(N)(=O)=O)cc4)OC3C1O2 (stereo not drawn) [compound 63],100,> 200,6.25,25,6.25,12.5,1.56,> 200,> 200,> 200,50,3.13,> 200,> 200,> 200,> 200,1.56,> 200,12.5,100,MIC [21]: 3.13 µg/mL; MIC [22]: 25 µg/mL; MIC [23]: > 200 µg/mL; MIC [24]: < 0.2 µg/mL; MIC [25]: 50 µg/mL; MIC [26]: > 200 µg/mL; MIC [27]: 100 µg/mL; MIC [28]: 3.13 µg/mL; MIC [29]: 25 µg/mL; MIC [30]: 3.13 µg/mL
